Patent publication US7011948B2, “Detection of ligand-antiligand complex formation by electromagnetically detectable bulk property measurement” (MDS Sciex, priority 2002, dated 2006)
“Also recorded” adds a separate entry of the source. Where two headings read alike, the source gives them in different places.

Assays:
Ribonuclease A (RNase A) = biological target: T1, Ribonuclease A (RNase A) (Bos taurus, UniProt P61823); assay: Multipole Coupling Spectroscopy (MCS) binding titration of CMP ligands with RNase A; details: for binding strength to RNase A in words: summary of ITC and MCS results
T1 construct: purchased Sigma (St. Louis, Mo.) R5503
T1 sequence (P61823 27-150): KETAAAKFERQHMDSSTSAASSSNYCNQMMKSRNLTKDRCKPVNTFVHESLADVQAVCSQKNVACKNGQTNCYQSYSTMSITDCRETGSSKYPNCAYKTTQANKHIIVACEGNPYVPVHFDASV
From the text: Given the equation εtot=α+βL0+γg(A0,L0,KD), it can be seen that εtot is a function of L0 and KD (F(L0,KD)). εtot is a measured value and L0 is known. If KD is fixed, εtot can be predicted from L0. Then, KD can be adjusted until the predicted and measured values of εtot are as close as possible according to a nonlinear least squares analysis defined as follows: {(^1L0,^1εtot)|i=1, 2, . . . n} measurements find KD such that • Σ[^1εtot−F(^iLO,KD)]^2 is a minimum.
This formula defines the objective function for this nonlinear least squares problem. The problem is called a least squares problem because the objective function is the sum of the squares of the residuals (differences) between the measurements and the model predictions. The solution is the value of KD that minimizes the objective function. FIG. 7 depicts a plot showing an example of this objective function. There are many ways to minimize the objective function. Any standard function optimization algorithm, such as the steepest descent algorithm, can be used. Some objective function minimization methods take advantage of the particular structure of this objective function, for example the conjugate gradient method and the Levenberg-Marquardt method, and their use may be preferred in many instances. In this way, the strength of the ligand/antiligand bond can be quantified.
Materials. Ribonuclease A, (RNase A, catalogue # R5503)), cytidine 2′-monophosphate free acid (2′-CMP, catalogue # C7137), cytidine 3′-monophosphate free acid (3′-CMP, catalogue # C1133), cytidine 5′-monophosphate free acid (5′-CMP, catalogue # C1131), sodium chloride (catalogue # S7653), magnesium chloride (catalogue # M2670), Bis-Tris free base (catalogue # B7535), and Bis-Tris hydrochloride salt (catalogue # B6032) were purchased from Sigma (St. Louis, Mo.). The surfactant NP-40 (catalogue # 492015) was purchased from Calbiochem (San Diego, Calif.). These reagents were used without further purification. All solutions were prepared using milliQ water. These experiments were performed in a pH 6.0 150 mM BIS-TRIS buffer containing 10 mM sodium chloride, 10 mM magnesium chloride, and 0.005% v/v NP-40. Preparation of Sample Solutions. The protein solution was prepared by dissolving RNase A in the Bis-Tris buffer to give a final concentration of 1 mM protein; no subsequent dialysis was performed. The ligand solutions were prepared by dissolving 2′-CMP, 3′-CMP or 5′-CMP in the 1 mM RNase A solution to give a final concentration of 4 mM ligand. A series of samples which formed the basis of the ligand binding curve were prepared by mixing various ratios of the above two solutions as outlined in Table 1. Multipole Coupling Spectroscopy (MCS). […] The flow cell (a polyimide tube with an 0.0285″ I.D. and an 0.0305″ O.D. from HV Technologies, Trenton, Ga.) was mounted on the top of the coaxial resonating detector such that only the wall of the tubing separated the detector and the fluidic sample. The AFM was used to draw the fluidic samples into the detection region of the flow cell. The network analyzer settings used were S11 reflection, log magnitude, linear frequency sweep in stepped mode, 401 points, IF bandwidth of 30 Hz, power of −5 dBm, and no cable calibration was applied.
To set up the instrument to measure the data of a binding titration, the protein solution was first introduced to the flow cell of the coaxial resonating fixture and the fixture was coupled by adjusting the size of the gap until the desired reflection was achieved (approximately −30 dBm). The co-axial resonator has a sliding mechanism composed of a single dimension translation stage and a mechanical motor (Picomotor Driver from New Focus Inc., San Jose, Calif.) to adjust the gap size separating the pieces of coax such that the desired MCS reflection is achieved. Each of the remaining fluidic samples described in Table 1, below, were sequentially measured. […]

RNase = biological target: T2, RNase (Bos taurus, UniProt P61823); assay: Isothermal Titration Calorimetry (ITC) binding to RNase
T2 sequence (P61823 27-150): T1 sequence (P61823 27-150)
From the text: Table 2, below, provides the chemical structure of each of the three CMP ligands used in this experiment and a comparison of their dissociation constants (KD) binding to RNase as determined by Isothermal Titration Calorimetry (ITC) and Multipole Coupling Spectroscopy (MCS).

RNase A = biological target: T3, RNase A (Bos taurus, UniProt P61823); assay: Refractive index binding titration of 2′CMP with RNase A; details: 1 mM RNase; 150 mM Bis-Tris buffer pH 6; 2′CMP up to 4 mM
T3 construct: purchased Sigma
T3 sequence (P61823 27-150): T1 sequence (P61823 27-150)
Experimental: As verification of the generality of the inventive technique in bulk property situations other than the measurements involving permittivity, an experiment was carried out by measuring refractive index as the bulk property of a test solution. The binding assay used was one of the ones shown in Example 1, namely binding of RNase A to the RNase inhibitor 2′CMP. The refractometer used to measure the refractive index of the samples was a Wyatt Technologies Optilab DSP refractometer, calibrated using sodium chloride solutions as described in the manufacturer's instructions. RNase (Sigma) was dissolved in a buffer containing 150 mM Bis-Tris, 10 mM NaCl, 10 mM MgCl2, 0.005% […], pH 6, to provide 1 mM RNase. A portion of this solution was fed into the reference cell of the refractometer, and the instrument was left standing until the readout had stabilized. The test ligand, 2′CMP, was dissolved to 4 mM in a portion of the 1 mM RNase solution, and a titration was prepared to produce the following concentrations.
Samples were then loaded into the Optilab sample cell using a syringe and measured in the following order: […]
The refractometer was zeroed using a 1 mM RNase solution. […] The refractive index change relative to the reference cell was calculated using the software and plotted against the concentration of 2′CMP.

[1] = 27° C., 1 mM RNase A, pH 6.0 Bis-Tris buffer, 1.3 GHz, vs ligand concentration, read-out: KD from fit of absolute permittivity values (e′ real part of permittivity), FIG. 11A
[2] = 27° C., 1 mM RNase A, pH 6.0 Bis-Tris buffer, vs ligand-to-protein ratio, read-out: KD from fit of change in impedance (Zi, imaginary part of impedance), FIG. 11E
[3] = 27° C., 1 mM RNase A, pH 6.0 Bis-Tris buffer, vs ligand-to-protein ratio, read-out: MCS KD from fit of change in permittivity (e′ real part of permittivity), FIG. 11C
[4] = 27° C., 1 mM RNase A, pH 6.0 Bis-Tris buffer, vs ligand-to-protein ratio

Kd (Ribonuclease A (RNase A); [1]) [µM]	Kd (Ribonuclease A (RNase A); [2]) [µM]	Kd (Ribonuclease A (RNase A); [3]) [µM]	binding strength to RNase A in words (Ribonuclease A (RNase A))	Kd (RNase) [µM]	KD from fit of absolute permittivity values (e′ real part of permittivity), FIG. 11A (Ribonuclease A (RNase A); 27° C., 1 mM RNase A, pH 6.0 Bis-Tris buffer, 1.3 GHz, vs ligand concentration)	KD from fit of change in impedance (Zi, imaginary part of impedance), FIG. 11E (Ribonuclease A (RNase A); [4])	ITC KD (RNase)	Structure (SMILES)	refractive index change vs concentration plot (FIG. 12), binding detection (RNase A)	MCS KD from fit of change in permittivity (e′ real part of permittivity), FIG. 11C (Ribonuclease A (RNase A); [4])
10	11	10	relatively strong binder	6.3				Nc1ccn([C@@H]2O[C@H](CO)[C@@H](O)[C@H]2OP(=O)(O)O)c(=O)n1 [2′-CMP, cytidine 2′-monophosphate free acid]	deviates significantly from linearity, indicating that binding has taken place	
130	75	130	relatively weak binder	75				Nc1ccn([C@@H]2O[C@H](CO)[C@@H](OP(=O)(O)O)[C@H]2O)c(=O)n1 [3′-CMP, cytidine 3′-monophosphate free acid]		
			unmeasurably weak		No suitable curve fit was achieved	No suitable curve fit was achieved	non-binding	Nc1ccn([C@@H]2O[C@H](COP(=O)(O)O)[C@@H](O)[C@H]2O)c(=O)n1 [5′-CMP, cytidine 5′-monophosphate free acid]		No suitable curve fit was achieved; also recorded: non-binding
